Key:
normal C57BL/6J mice [1] = experiment: Induction of extra islet insulin positive β cell clusters (EIC) in normal C57BL/6J mice; format: in vivo, mouse
Description: After a 1-week acclimation, female C57BL/6J mice were randomly divided into 6 groups (n=5 per group). The control group received 10 mL/kg sterile normal saline via subcutaneous injection for 10 consecutive days. The other five groups received INGAP-PP (Peptide 1) or INGAP-PP analogs Peptide 12, Peptide 16, Peptide 29 or Peptide 31 at a dose of 50 mg/kg or 5 mg/kg per day, respectively, for the same period. On day 11, the pancreas was removed from each animal, cleared of fat and lymph nodes, weighed, and fixed in 10% neutral buffered formalin (NBF) for no longer than 24 hours before processing for morphometric analysis.
Immunohistochemistry analysis was used to assess the islet neogenic activities of peptides by measuring the number and area of extra islet insulin positive β cell clusters (EIC) of pancreatic tissues harvested from each individual group post 10 day treatment. EIC is indicative of islet neogenesis, as previously described by Lipsett and Finegood (Diabetes 51:1834-1841 (2002)).

[2] = Peptide stability in culture medium (F-12K, 37° C., HPLC); format: physicochemical; conditions: F-12K medium, 0.25 mg/mL, 0-72 hours, FIG. 2, FIG. 11
Description: To determine the stability of peptides in culture medium, a certain amount of selected peptides was accurately weighed and dissolved in distilled water to 5 mg/mL as a stock solution. The stock solution was diluted to 0.25 mg/mL with F-12K medium (Gibco-BRL, Gaithersburg, Md., USA) as working solution. A volume of 100 μL of each working solution was transferred into individual sample vials. The sample vials were incubated in a 37° C. incubator for 0, 24, 48 and 72 hours before being analyzed and quantitated by HPLC. […]

[3] = test system: STZ induced diabetic mice; experiment: Efficacy in streptozotocin (STZ) induced diabetic mice model; format: in vivo, mouse; conditions: 5 mg/kg or 25 mg/kg for 20 days
Description: After acclimatization in the animal facility for one week, 6-8 weeks old C57BL/6J mice were administered low dose STZ at 40 mg/kg in citrate buffer for 5 consecutive days to establish a T1D animal model. Mice with blood glucose greater than 16.7 mmol/L at 5 days post last STZ injection were included in the study. These mice were then treated with INGAP-PP (Peptide 1) or Peptide 7 at the doses of 5 mg/kg (2.5 mg/kg, bid (twice a day)) or 25 mg/kg (12.5 mg/kg, bid) for 20 days before sacrifices. Two additional groups of diabetic mice were administered either saline or a peptide (Peptide 3) composed of a scrambled sequence of amino acids from Peptide 1 as control groups. Blood glucose and insulin levels were measured, and 20 days post the last dosing of test agents, an oral glucose tolerance test (OGTT) was performed in 6 hour fasted animals to determine the effect of Peptide 1 and Peptide 7. Blood samples obtained from the tail cut for glucose determination were detected with an ACCU-CHEK™ glucometer (Roche, ACCU-CHEK® Active), and insulin levels were determined with Rat/Mouse Insulin Elisa kit (Millipore, Billerica, Mass. USA). For the OGTT, after the measurement of the basal glucose concentration (T=−30 min), mice received an oral glucose challenge at 2 g/kg and glucose values were determined by glucometer at 0, 15, 30, 60, 90 and 120 min.

normal C57BL/6J mice [4] = experiment: Induction of small β-cell clusters in normal C57BL/6J mice (islet size distribution); format: in vivo, mouse
Description: After a 1-week acclimation, C57BL/6J female mice were randomly divided into 4 groups. The two control groups received either 10 mL/kg sterile normal saline (n=4) or scrambled peptide (Peptide 3, 25 mg/kg) (n=5) via subcutaneous injection for 10 days. The other two groups received INGAP-PP (Peptide 1) or INGAP-PP analog Peptide 7 at a dose of 25 mg/kg per day respectively (n=7 per group) for the same period. Body weight and 6 hour fasting blood glucose were measured before treatment and after the last dosing of treatment. Plasma and pancreatic insulin were also measured at the end of the study. On day 11, the pancreas was removed from each animal, cleared of fat and lymph nodes, weighed, and fixed in 10% neutral buffered formalin (NBF) for no longer than 24 hours before processing for morphometric analysis.
Immunohistochemistry analysis was used to determine pancreatic islet size distribution.

## Ac-IGLHDPSHGTLPNGS-NH2 [Peptide 31, Ac-IGLHDPSHGTLPNGS-NH2]
Normal C57BL/6J mice [1]; analog 5 mg/kg vs INGAP-PP 50 mg/kg, 10 days
  islet neogenesis efficacy relative to INGAP-PP: comparable or improved efficacy was achieved at a dose one tenth of INGAP-PP
Normal C57BL/6J mice [1]; female C57BL/6J mice, 10 days sc, INGAP-PP 50 mg/kg, analogs 5 mg/kg per day, FIG. 9A
  number of extra islet cluster (EIC): statistically greater than that of INGAP-PP (Peptide 1) (50 mg/kg) treated group
Normal C57BL/6J mice [1]; female C57BL/6J mice, 10 days sc, INGAP-PP 50 mg/kg, analogs 5 mg/kg per day, FIG. 9B
  total area of EIC: statistically greater than that of INGAP-PP (Peptide 1) (50 mg/kg) treated group

## Ac-IGLHDPSHGTLPNGS-OH [Peptide 16, Ac-IGLHDPSHGTLPNGS-OH]
[2]
  stability in culture medium: significantly more stable than INGAP-PP peptide in culture medium

## H-IGLHDPSHGTLPNGS-OH [Peptide 1, H-IGLHDPSHGTLPNGS-OH, reference compound]
[3]
  effect on body weight or pancreas weight: did not affect body weight or pancreas weight
Normal C57BL/6J mice [4]; normal female C57BL/6J mice, 25 mg/kg per day, 10 days, versus naive/control group, FIG. 7
  number of islets, islet size (Log [μm^2]) ranging from 2.1 to 0.7: only observed in islet size of 2.1
Normal C57BL/6J mice [4]; normal mice, 25 mg/kg per day sc for 10 days, compared to saline group
  effect on body weight, blood glucose, plasma insulin, pancreas insulin, pancreas weight: did not affect body weight, blood glucose, plasma insulin, pancreas insulin, or pancreas weight
